Source: paper PMC6884535, “Detection of colonic neoplasia in vivo using near-infrared-labeled peptide targeting cMet” (Scientific Reports, 2019)
Where a SMILES comes first, the peptide text is derived from it. Where no end group is shown, it is not given here. The star is where a group is joined. X1 = CN1/C(=C/C=C/C=C/C2=[N+](CCCCCC(=O)*)c3ccc4ccccc4c3C2(C)C)C(C)(C)c2c1ccc1ccccc21

Tests used:
[1] = system: CCD841 cells; test: Alamar blue growth assay, CCD841 cells; assay type: cell-based, human; conditions: 48 hours, 37 °C; HGF 25 ng/mL or QQT*-Cy5.5 5 or 100 μM; 3 independent experiments
Experimental: (§1) An alamar blue assay was performed using HT29 and CCD841 cells. After culturing in serum free media overnight, ~3 × 10^3 cells were seeded per well in serum free media in 96 well plates at a final volume of 100 µL per well. […] Alamar blue reagent (10 µL) was added in amounts equal to 10% of the volume in the well, and incubated at 37 °C for 4 hours. Fluorescence with excitation at λex = 530–560 nm, and emission at λex = 590 nm was measured.

[2] = system: vascular endothelial growth factor A (VEGFA); conditions: IRDye800-labeled, intravenous, n = 17 FAP patients, cited from earlier work
Source text: Large molecules, such as antibodies, that have high target affinity are also being utilized for CRC imaging. Bevacizumab is a monoclonal antibody that has been repurposed for imaging by labeling with IRDye800 to detect overexpressed vascular endothelial growth factor A (VEGFA)[46]. This imaging agent was intravenously administered in a total of n = 17 patients with familial adenomatous polyposis (FAP), and n = 51 adenomas were detected. A median T/B ratio = 1.84 was achieved using a dose of 25 mg. Small adenomas with dimensions< 3 mm were detected. Antibodies have long circulation times that l ...

[3] = system: p-cMet; test: Western blot of p-cMet in HT29 cells; assay type: cell-based, human; conditions: HT29, serum-starved; HGF 25 ng/mL or QQT*-Cy5.5 5 or 100 μM; 10, 30, 120 min
Experimental: (§2) Peptides are added at concentrations of 5 and 100 μM for 10, 30, and 120 min. Anti-cMet antibody (#8198, Cell Signaling), phospho-cMet (Tyr1234/1235) antibody (#3077, Cell Signaling), anti-AKT (#4691, Cell Signaling), anti-phospho-AKT (#9271, Cell Signaling), anti-ERK1/2 (#ab17942, Abcam,), anti-phospho-ERK1/2 (#ab50011, Abcam), and anti-tubulin (#32-2600, Invitrogen) were used per manufacturer’s instructions.

[4] = system: p-ERK1/2; test: Western blot of p-ERK1/2 in HT29 cells; assay type: cell-based, human; conditions: HT29, serum-starved; HGF 25 ng/mL or QQT*-Cy5.5 5 or 100 μM; 10, 30, 120 min
Experimental: as §2

[5] = system: HT29 cells; test: Alamar blue growth assay, HT29 cells; assay type: cell-based, human; conditions: 48 hours, 37 °C; HGF 25 ng/mL or QQT*-Cy5.5 5 or 100 μM; 3 independent experiments
Experimental: as §1

[6] = system: p-AKT; test: Western blot of p-AKT in HT29 cells; assay type: cell-based, human; conditions: HT29, serum-starved; HGF 25 ng/mL or QQT*-Cy5.5 5 or 100 μM; 10, 30, 120 min
Experimental: as §2

[7] = target: T1, cMet (Homo sapiens, UniProt P08581); test: Competition of unlabeled peptide for QQT*-Cy5.5 binding to HT29 cells; conditions: unlabeled peptide 0, 25, 50, 100, 200 and 400 μM, then 5 μM Cy5.5-labeled peptide, 3 replicate slides, 5 cells per slide
T1 construct: endogenous in cells; host or cells: HT29 human colorectal cancer cells (ATCC)
T1 sequence (P08581 25-1390): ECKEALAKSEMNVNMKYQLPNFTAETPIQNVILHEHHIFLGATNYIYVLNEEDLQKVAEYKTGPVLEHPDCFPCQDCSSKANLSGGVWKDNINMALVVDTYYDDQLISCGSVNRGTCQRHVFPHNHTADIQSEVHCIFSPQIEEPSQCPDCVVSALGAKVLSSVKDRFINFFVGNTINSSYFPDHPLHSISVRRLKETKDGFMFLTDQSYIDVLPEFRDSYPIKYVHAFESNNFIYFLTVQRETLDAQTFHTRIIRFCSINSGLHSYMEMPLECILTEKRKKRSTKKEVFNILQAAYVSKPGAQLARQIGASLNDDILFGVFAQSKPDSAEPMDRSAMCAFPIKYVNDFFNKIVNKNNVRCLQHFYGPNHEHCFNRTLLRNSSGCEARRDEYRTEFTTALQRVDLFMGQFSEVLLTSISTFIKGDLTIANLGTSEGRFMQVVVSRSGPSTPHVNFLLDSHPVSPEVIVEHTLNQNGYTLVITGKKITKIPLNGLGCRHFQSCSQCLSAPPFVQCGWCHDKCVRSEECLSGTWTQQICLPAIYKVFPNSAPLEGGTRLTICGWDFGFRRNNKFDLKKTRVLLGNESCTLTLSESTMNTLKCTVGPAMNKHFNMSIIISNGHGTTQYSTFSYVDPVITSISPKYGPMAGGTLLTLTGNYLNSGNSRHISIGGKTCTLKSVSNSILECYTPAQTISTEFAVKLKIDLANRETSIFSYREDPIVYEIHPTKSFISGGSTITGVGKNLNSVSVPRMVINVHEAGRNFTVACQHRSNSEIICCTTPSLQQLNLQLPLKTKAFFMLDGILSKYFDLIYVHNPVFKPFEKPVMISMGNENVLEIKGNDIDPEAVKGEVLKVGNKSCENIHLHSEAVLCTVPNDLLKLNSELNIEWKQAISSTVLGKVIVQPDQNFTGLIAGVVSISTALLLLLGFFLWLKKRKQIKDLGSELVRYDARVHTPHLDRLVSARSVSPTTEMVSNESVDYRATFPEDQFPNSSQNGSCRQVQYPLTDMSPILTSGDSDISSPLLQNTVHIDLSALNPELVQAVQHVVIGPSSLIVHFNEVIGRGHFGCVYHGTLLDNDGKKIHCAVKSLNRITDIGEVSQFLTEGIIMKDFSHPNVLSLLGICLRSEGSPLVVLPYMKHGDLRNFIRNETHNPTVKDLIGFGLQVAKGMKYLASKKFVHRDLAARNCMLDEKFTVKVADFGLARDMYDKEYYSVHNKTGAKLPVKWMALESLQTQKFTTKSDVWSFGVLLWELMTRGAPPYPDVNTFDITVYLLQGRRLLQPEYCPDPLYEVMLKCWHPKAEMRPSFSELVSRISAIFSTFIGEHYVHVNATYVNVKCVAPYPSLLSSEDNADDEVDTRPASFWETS
Experimental: Unlabeled peptides at 0, 25, 50, 100, 200 and 400 μM were first added and then incubated with 5 μM of Cy5.5-labeled peptides. […] The cells were fixed with 4% PFA, and mounted with ProLong Gold reagent containing DAPI.

[8] = system: mouse cMet-ECD; test: Pull-down assay with mouse cMet-ECD; assay type: binding; conditions: peptide immobilized on EHS beads; Western blot; by comparison with TLQ*
Experimental: Interactions between peptide and mouse cMet were evaluated using a pull-down assay. Peptides were immobilized on EHS active beads (17-0906-01, GE), and incubated with purified mouse cMet-ECD protein (50622-M08H, Sino Biological). After washing, bound proteins were detected by Western blot.

[9] = target: T1, cMet; test: Confocal microscopy of binding to HT29 cells with siRNA knockdown of cMet
Experimental: (§3) The cells were blocked with 1X PBS plus 2% BSA for 1 hour at 4 °C, and were incubated with 5 μM of peptide for 10 min at room temperature (RT) in the dark, washed 3×, and fixed with 4% PFA for 5 min, washed with 1X PBS, and then mounted on glass slides with ProLong Gold reagent containing DAPI (Invitrogen). A 1:3000 dilution of primary monoclonal rabbit anti-cMet antibody (#8198, Cell Signaling Technology) was incubated with the cells in vitro as a positive control. Afterwards, the cells were incubated with a 1:500 dilution of AF488-labeled secondary goat ant-rabbit immunoglobulin G antibody (#A-11029, Life Technologies), and then mounted on glass slides with ProLong Gold reagent containing DAPI. Confocal fluorescence images were collected using a 63X oil-immersion objective (Leica SP5 Inverted 2-Photon FLIM confocal). Fluorescence intensities were quantified using custom Matlab software (Mathworks).
Expression of cMet by HT29 cells was knocked down using siRNA (siRNA1, SASI_Hs01_00133002, Sigma). MISSION® siRNA Universal Negative Control (SIC001, Sigma) was used for control. Cells were transfected with Lipofectamine 2000 (11668027, Invitrogen) per manufacturer instructions, and incubated with 5 μM of peptide for 5 min. A 1:3000 dilution of primary monoclonal rabbit anti-cMet antibody (Cell Signaling Technology, #8198) was used for positive control.

[10] = system: cMet; test: In vivo fluorescence endoscopy of colonic adenomas in CPC;Apc mice; design: species or system mouse; conditions: intra-rectal 100 μM, 1.5 mL, control peptide 3 days later
Experimental: CPC;Apc mice were used for in vivo imaging. This mouse was genetically engineered to sporadically delete an adenomatous polyposis coli (APC) allele under control of a Cdx2 promoter (CDX2P-9.5NLS-Cre) to spontaneously form either flat or polypoid adenomas in the distal colon. Prior to imaging, the mice were fasted for 4–6 hours. Anesthesia was induced and maintained via a nose cone with inhaled isoflurane mixed with oxygen at concentrations of 2–4% at a flow rate of 0.5 L/min. A rigid small animal endoscope (Karl Storz Veterinary Endoscopy) was inserted into the rectum. White-light illumination was used first to identify the presence of adenomas. Peptides (100 μM, 1.5 mL) were delivered intra-rectally through the instrument channel. After 5 min for incubation, the colon was rinsed with warm tap water 3X to remove stool and debris prior to image collection. After 3 days for the signal from the target peptide to clear, the same mice were imaged using the control peptide. A ratio of the fluorescence and reflectance images was determined to correct for differences in distance and geometry over the image field-of-view (FOV)[33]. […] The mean fluorescence intensity was used to calculate the target-to-background (T/B) ratios. Images were processed and analyzed using custom software in Matlab (Mathworks)[34].

[11] = system: cMet; test: Confocal microscopy of binding to S114 (cMet+) versus NIH3T3 (cMet-) cells; design: species or system mouse
Experimental: Human HT29, SW480, CCD841 colorectal cancer cells and mouse NIH 3T3 embryonic fibroblast cells were obtained from the ATCC. S114 cells (NIH 3T3 cells transformed to express cMet) were provided by courtesy of G Vande Woude (Van Andel Institute). McCoy’s 5A Medium (Gibco) was used for HT29 cells. Dulbecco’s Modified Eagle Medium (Gibco) were used for SW480, NIH3T3, and S114 cells. Eagle’s Minimum Essential Medium (Lonza) was used for CCD841. All cells were cultured at 37 °C in 5% CO2, and supplemented with 10% fetal bovine serum. Reagents for peptide synthesis were obtained from Anaspec (Anaspec) and AAPPTEC (AAPPTEC) at the highest available grade (>99% purity), and were used without further purification. Solvents and other chemical reagents were purchased (Sigma-Aldrich) unless stated otherwise.
as §3

[12] = target: T1, cMet; test: Confocal microscopy of binding to HT29 (cMet+) versus SW480 (cMet-) CRC cells
Experimental: as §3

[13] = target: T2, cMet on human HT29 CRC cells (human (endogenous in HT29), UniProt P08581 25-1390); test: flow cytometry on cells; HT29 cells incubated with peptide at 0-200 nM for 1 hour at 4 °C; apparent dissociation constant by nonlinear regression; conditions: one partner purified
T2 construct: cMet, transmembrane tyrosine kinase receptor (hepatocyte growth factor receptor), human; Alpha and beta chains are cut from one precursor; written as one chain; also called HT29 cells (cMet+); source: endogenous, on HT29 cells
T2 sequence (P08581 25-1390): as above

[14] = target: T2, cMet on human HT29 CRC cells; test: immunostaining of cells or tissue; confocal fluorescence microscopy of cells incubated with 5 μM Cy5.5-labeled peptide (5-10 min, RT), washed, fixed with 4% PFA; HT29 transfected with siCL or sicMet; HT29 versus SW480; S114 versus NIH3T3; conditions: one partner purified
[15] = 6 replicate slides per condition, 10 cells per slide

## CC(C)C[C@H](NC(=O)[C@H](CO)NC(=O)[C@H](Cc1c[nH]c2ccccc12)NC(=O)[C@H](CC(N)=O)NC(=O)[C@@H](NC(=O)[C@H](CCC(N)=O)NC(=O)[C@@H](N)CCC(N)=O)[C@@H](C)O)C(=O)NCC(=O)NCC(=O)NCC(=O)N[C@@H](CO)C(=O)N[C@@H](CCCCNC(=O)CCCCC[N+]1=C(/C=C/C=C/C=C2/N(C)c3ccc4ccccc4c3C2(C)C)C(C)(C)c2c1ccc1ccccc21)C(N)=O [QQT*-Cy5.5] (H-QQTNWSLGGGSK(X1)-NH2)
[1]
  Growth of CCD841 normal colon cells: no effect on growth

## Bevacizumab: monoclonal antibody repurposed for imaging by labeling with IRDye800 to detect overexpressed VEGFA
[2]; 25 mg
  Median T/B ratio: 1.84
[2]
  Dimensions of small adenomas detected: < 3 mm
  Number of adenomas detected: 51

## HGF: recombinant human hepatocyte growth factor (HGF, 294-HG-005, R&D), a known ligand for cMet
[3]
  Phosphorylation of cMet (p-cMet): strong phosphorylation activity
[4]
  Phosphorylation of downstream ERK1/2 (p-ERK1/2): strong phosphorylation activity
[1]
  Growth of CCD841 normal colon cells: not (C) CCD841 cells
[5]
  Growth of HT29 cells: increased growth
[6]
  Phosphorylation of downstream AKT (p-AKT): strong phosphorylation activity

## QQTNWSL [QQT*]
[7]
  Competition: fluorescence intensity of QQT*-Cy5.5 binding with increasing unlabeled peptide: decreased significantly
[8]
  Pull-down band for binding to mouse cMet-ECD: strong band

## TLQWNQS [TLQ*, unlabeled control peptide TLQ*]
[7]
  Competition: fluorescence intensity of QQT*-Cy5.5 binding with increasing unlabeled peptide: not with TLQ*

## TLQWNQS [TLQ*-Cy5.5]
[9]; HT29, ANOVA on log-transformed data, 6 replicate slides per condition
  Change in fluorescence intensity, siCL versus sicMet (in words): non-significant decrease
[9]; HT29 siCL, peptide 5 μM, antibody 1:3000, confocal fluorescence
  Binding to surface of HT29 cells transfected with siCL (control): minimal binding
[9]; HT29 sicMet, peptide 5 μM, 5 min, antibody 1:3000, confocal fluorescence
  Binding to HT29 cells transfected with sicMet (cMet knockdown): little binding
[10]
  Fluorescence from representative polyp: minimal signal
[10]; same lesion
  Fluorescence from representative flat lesion: minimal signal
[11]; [15]
  Change in mean intensity, S114 versus NIH3T3 (in words): non-significant increase
[11]; NIH3T3, confocal, peptide 5 μM 10 min RT, antibody 1:3000
  Binding to NIH3T3 cells (cMet-): nominal binding
[11]; S114, confocal, peptide 5 μM 10 min RT, antibody 1:3000
  Binding to surface of S114 cells (cMet+): minimal binding
[12]; [15]
  Change in mean intensity, HT29 versus SW480 (in words): non-significant decrease
[12]; HT29, confocal, peptide 5 μM 10 min RT, antibody 1:3000
  Binding to surface of HT29 cells (cMet+): minimal binding
[12]; SW480, confocal, peptide 5 μM 10 min RT, antibody 1:3000
  Binding to SW480 cells (cMet-): minimal binding

B1: QQT*-Cy5.5 (peptide)
peptide: QQTNWSLGGGSK-{Cy5.5}
modifications: not fully specified
notes: heptapeptide selected by phage display (Ph.D.-7 library) against the extra-cellular domain of cMet; linker between the peptide and Cy5.5; also called QQTNWSL; cMet peptide; source: synthetic peptide (Fmoc solid-phase synthesis, purified with HPLC)
[13]
  Kd: 57 nM
[14]
  fold change of fluorescence intensity against TLQ*-Cy5.5: 8.1 fold
  fold change of fluorescence intensity, siCL versus sicMet transfected cells: 2.9 fold
